Test results from patent US11612583B2, “Disease modifying methods for treating neurodegenerative diseases using nootropic agents” (priority 2018, dated 2023).
“Also recorded” adds a separate entry of the source.

Columns and labels:
[1] = tested on: PINK1-KO rats; test: Baseline oxygen consumption rates in midbrain slices of PINK1-KO rats; type: in vivo, rat; details: intraperitoneal Forskolin 1.6 mg/kg with or without Noopept 0.05 μg/kg; FIG. 12
Protocol: Wild-type (PINK1+/+) or PINK1 knockout (PINK1−/−) rats were treated with intraperitoneal injections of DMSO control or of Forskolin (1.6 mg/kg body weight) once every 2 days for two doses followed by co-administration with Noopept (0.05 μg/kg) for three more doses (once every two days) for up to a total treatment time of 10 days. At the end of each treatment, a battery of motor tests were performed in vehicle-treated or WT and PINK1-KO rats treated with compounds to analyze for muscle strength in hind legs by using a grip strength analyzer. In addition, muscle coordination and balance were assessed by subjecting the rats to cross a 1-meter, tapered beam balance (2 cm width) for up to three trials per animal. Upon completing the behavioral tests, the rats were then transcardially perfused with phosphate buffered saline, and the brains were extracted, midbrain slices were generated by using a vibratome (brain slicer) at room temperature and maintained in artificial cerebral spinal fluid. The oxygen consumption rates were then measured by using an XF24^e Metabolic Analyzer to measure energy production in the brain (oxidative phosphorylation) as described in Example 1 but with the following modifications. […] The brain slices were analyzed for baseline respiration for five cycles with each cycle consisting of 3 min. of mixing, 3 min. of waiting and 2 min. of measuring OCRs.

[2] = tested on: primary cortical neurons treated with rotenone; test: Extracellular acidification rates (ECARs), proxy for glycolysis, in rotenone-treated primary cortical neurons; type: cell-based, mouse; details: after rotenone 65 nM 24 hours, 6.5 μM-8.5 μM, FIG. 3
Protocol: Rotenone (1.26 mM stock, Sigma, Cat #R8875) was freshly prepared in water prior to each use. Stocks of rotenone were maintained in the dark at −20° C. for up to 6 months. […]
The extracellular acidification rates (ECARs), a proxy for glycolysis, were also assessed by using an XF24^e Extracellular Flux Analyzer in primary neurons.

[3] = tested on: primary cortical neurons treated with rotenone; test: Dendrite length analysis (MAP2B immunostaining); type: cell-based, mouse; details: after rotenone 65 nM; Forskolin/NKH477 6.5 μM-8.5 μM or 250 μM dbt-cAMP; FIG. 5
[4] = tested on: primary cortical neurons treated with rotenone; test: Oxygen consumption rates (XF24e Extracellular Flux Analyzer) in rotenone-treated primary cortical neurons; type: cell-based, mouse
Protocol: Rotenone (1.26 mM stock, Sigma, Cat #R8875) was freshly prepared in water prior to each use. Stocks of rotenone were maintained in the dark at −20° C. for up to 6 months. Rotenone was used at 65 μM for neuroblastoma cells and at 65 nM for primary cortical neurons for 4-6 hours to induce oxidative and autophagic stress.
Forskolin (Coleus forskohlii, >98% HPLC, Sigma Aldrich) was prepared in DMSO as 5 mg/ml stocks (stable for up to 6 months if kept in the dark and stored in −20° C. until ready to use). On the day of the experiment, the forskolin aliquot was thawed and cells were treated once with forskolin at a concentration of 1 to up to 10 μM of forskolin in complete media for treating primary cortical neurons or for intraperitoneal administration of PINK1 knockout mice or PINK1 knockout rats.
Rotenone-treated primary neurons were then exposed to 250 μM dibutyryl cyclic AMP (dbt-cAMP) or with the parental or water-soluble form (NKH477) of Forskolin (6.5 μM-8.5 μM, 24 hrs). The basal oxygen consumption rates (OCRs), a proxy for mitochondrial function, were analyzed by using an XF24^e Extracellular Flux Analyzer (Agilent Technologies). The maximal oxygen consumption rates (OCRs), a proxy for maximal buffering capacity of mitochondrial function, were also analyzed by using an XF24^e Extracellular Flux Analyzer in primary cortical neurons treated with 1 μM FCCP, an ionophore that acts as a mitochondrial uncoupler.

[5] = tested on: PINK1-KO rats; test: Tyrosine hydroxylase immunofluorescence in midbrain slices of PINK1-KO rats; type: in vivo, rat; details: female PINK1-KO rats; intraperitoneal Forskolin 1.6 mg/kg with or without Noopept 0.05 μg/kg; FIG. 13
Protocol: Wild-type (PINK1+/+) or PINK1 knockout (PINK1−/−) rats were treated with intraperitoneal injections of DMSO control or of Forskolin (1.6 mg/kg body weight) once every 2 days for two doses followed by co-administration with Noopept (0.05 μg/kg) for three more doses (once every two days) for up to a total treatment time of 10 days. At the end of each treatment, a battery of motor tests were performed in vehicle-treated or WT and PINK1-KO rats treated with compounds to analyze for muscle strength in hind legs by using a grip strength analyzer. In addition, muscle coordination and balance were assessed by subjecting the rats to cross a 1-meter, tapered beam balance (2 cm width) for up to three trials per animal. Another group of wild-type and PINK1-KO rats were sacrificed, and intracardially perfused with saline followed by 4% formaldehyde. Midbrain slices from wild-type and PINK1-KO rats were immunostained for tyrosine hydroxylase (TH, purple) to identify midbrain dopamine neurons. […] (*:p<0.05 vs. WT/vehicle, **:p<0.05 vs. PINK1-KO/vehicle, One-Way ANOVA, Tukey's test, N=4-7 rats per group).

`C=C[C@@]1(C)CC(=O)[C@]2(O)[C@@]3(C)[C@@H](O)CCC(C)(C)[C@@H]3[C@H](O)[C@H](OC(C)=O)[C@@]2(C)O1` [Forskolin] was tested, and the “basal respiration / oxidative phosphorylation in the midbrain (baseline OCRs)” value [1] was “sufficient to reverse the loss in oxidative phosphorylation; also recorded: significantly restored basal respiration”, the “glycolysis (baseline ECARs)” value [2] was “completely restored normal glycolytic function; also recorded: significantly restored” and the “dendrite arbors (total dendrite length per neuron)” value [3] was “reversed the loss of dendrites; also recorded: completely blocked; also recorded: significantly restored”. For the same compound, the “spare respiratory capacity (Maximal OCRs-Baseline OCRs)” value ([4]; after rotenone 65 nM 24 hours, 6.5 μM-8.5 μM, 24 hrs, 1 μM FCCP, FIG. 2) was “completely restored; also recorded: significantly restored”, the “baseline mitochondrial respiration (basal OCRs)” value ([4]; after rotenone 65 nM 24 hours, Forskolin or NKH477 6.5 μM-8.5 μM, 24 hrs, FIG. 1) was “partially or completely restored; also recorded: significantly restored” and the “protection against rotenone-mediated neurodegeneration” value ([4]; concentrations of Forskolin greater than 12.5 μM) was “did not confer significant protection”. For the same compound, the “concentration of maximal effects on protection against loss of neuronal metabolism (oxidative phosphorylation and glycolysis)” value ([4]; rotenone-treated primary neurons, bimodal) was “about 10 μM” and the “substantia nigra/midbrain dopamine neurons (integrated density of TH immunofluorescence)” value [5] was “completely reverses the loss of midbrain dopamine neurons; also recorded: significantly reversed neurodegeneration”.
